Results published in patent US8394431B2, “Composition of extracts from plants and the use thereof in prophylaxis or treatment of metabolism disorder of blood lipid” (priority 2008, dated 2013).

Experiments:
[1] = test system: Dietary hyperlipidemia rats; test: Blood lipid of dietary hyperlipemia model in rats; assay type: in vivo, SD rats; settings: serum, dose 3 mg/kg, 8 weeks; for HDL-C: high lipid control 0.71 ± 0.30; for LDL-C: high lipid control 1.43 ± 0.30; for TC: high lipid control 3.32 ± 0.49
Protocol: Observe the effects of different doses of FTZEC on the serum TC, TG, LDL-C, and HDL-C of hyperlipemia rats.
In addition to ordinary feed in control group, other groups were given high fat emulsion in 10 ml/kg every morning by gavage beside the ordinary feed, and given corresponding drugs 4 hours after feeding, in which the normal group and the model groups were given equal amount of normal saline, administrated for continuous 8 weeks. These animals were fasted for 1 d, when water was given, in the next morning, the blood was taken from orbital veniplex after the last administration, centrifuged and separated the serum to test the TC, TG, HDL-C, LDL-C respectively.

[2] = test system: Dietary hyperlipidemia New-Zealand female rabbits; test: Lipid metabolism of hyperlipidemia New-Zealand female rabbit model; assay type: in vivo; settings: hyperlipidemia unsexed female rabbits, dose 3 mg/kg, gavage, 12 weeks; for HDL-C: model 0.871 ± 0.30; for TG: model 3.98 ± 0.79; for LDL-C: model 11.63 ± 2.30; for TC: model 33.92 ± 3.49; for Ox-LDL: plasma ELISA, model 1.63 ± 0.30
Text: Purebred New Zealand female rabbits were unsexed and fed with 0.5% cholesterol diet, and intravenously injected with bovine serum albumin to establish the model. The experimental animals were 49 New Zealand Angora purebred female rabbits, 1.8-2.2 kg, 3-4 months old which were provided by Guangdong Province Experimental Animal Center. […] In the sham-operated group, the sham operation was confirmed (cutting a small piece of fat tissues around the ovary), without removing the ovaries. The rabbits were given ordinary commercial feed (120-150 g/d) after surgery. […] In the compound Fufang tiaozhi FTZ group (equal to five times of clinical adult daily dose) and other administration groups, the rabbits were administrated with drugs by gavage. The control group and the model group were fed and administrated by gavage with same volume of normal saline. The body weights were examined at 12 weeks of the experiment. 2 ml blood was taken by the ear artery for blood lipid measurement. The rabbits were fasted for 16 h before each blood sampling. […] The total cholesterol, triglyceride, HDLC and LDLC were detected by automatic biochemical analyzer and the steps were carried out according to the kit instructions. The OX-LDL in plasma was measured by ELISA, according to kit instructions.

[3] = test system: L-O2 Lipoprotein Lipase of Liver Cells (LPL); test: LPL activity in L-O2 hepatocytes (colorimetric kit); assay type: cell-based, human; settings: 50.0 μg/ml, normal 12.63 ± 0.67
Protocol: The L-O2 human normal liver cells were cultured in routine way, various concentrations of FTZCE were respectively added after cells fusion, continuously cultured the cells for a certain time followed by collecting cells to prepare cell homogenates. Using LPL/HL detection kit (Nanjing Jiancheng Biotechnology Research Institute), the LPL/HL activity was detected by colorimetric method to research the effects of various composition of extracts from plants conbination on LPL activity and compare the enzyme activity of hepatocyte LPL/HL under the action of different concentrations of FTZEC. The gene expressions of hepatocyte LPL/HL were determined by RT-PCR method to observe the affects of FTZEC on the hepatocyte LPL/HL gene expression.

[4] = target: T1, HMG-CoA reductase (Rattus norvegicus, UniProt P51639); test: Inhibition of HMG-CoA reductase activity (rat liver cell microsomes); assay type: biochemical, rats
T1 construct: The rats liver cells microsomes were prepared into HMG-CoA reductase solution; from tissue; host or cells: rat liver cell microsomes
T1 sequence (P51639 1-887): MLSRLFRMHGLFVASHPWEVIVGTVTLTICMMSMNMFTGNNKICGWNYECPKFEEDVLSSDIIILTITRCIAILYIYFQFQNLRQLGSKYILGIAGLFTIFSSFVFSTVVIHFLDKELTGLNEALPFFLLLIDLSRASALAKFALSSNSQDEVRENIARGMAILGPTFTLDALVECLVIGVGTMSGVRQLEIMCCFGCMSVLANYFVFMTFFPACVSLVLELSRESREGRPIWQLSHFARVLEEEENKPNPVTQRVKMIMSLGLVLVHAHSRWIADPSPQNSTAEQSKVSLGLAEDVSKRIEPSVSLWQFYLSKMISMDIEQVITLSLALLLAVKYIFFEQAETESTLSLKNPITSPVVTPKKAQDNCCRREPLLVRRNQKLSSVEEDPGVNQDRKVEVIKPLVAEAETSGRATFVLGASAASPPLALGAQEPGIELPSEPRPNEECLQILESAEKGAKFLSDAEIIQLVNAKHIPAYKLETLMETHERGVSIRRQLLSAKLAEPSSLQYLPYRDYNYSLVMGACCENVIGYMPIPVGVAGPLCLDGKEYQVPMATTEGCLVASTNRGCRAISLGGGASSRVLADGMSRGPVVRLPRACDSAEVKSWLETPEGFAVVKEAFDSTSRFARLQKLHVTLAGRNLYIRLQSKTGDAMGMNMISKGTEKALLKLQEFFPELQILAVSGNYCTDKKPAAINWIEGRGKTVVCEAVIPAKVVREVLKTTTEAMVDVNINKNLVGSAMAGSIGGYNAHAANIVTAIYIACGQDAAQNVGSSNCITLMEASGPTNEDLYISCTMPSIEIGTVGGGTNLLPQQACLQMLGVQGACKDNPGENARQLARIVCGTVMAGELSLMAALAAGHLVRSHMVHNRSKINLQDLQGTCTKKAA
Protocol: Test the effects of various FTZEC conbination in vitro experiment on inhibiting HMGCoA reductase activity and calculate the IC50 of the composition of extracts from plants on inhibition of HMGCoA reductase and compare with pravastatin.
The rats liver cells microsomes were prepared into HMG-CoA reductase solution. The activities of the HMG-CoA reductase were determined by literature method. The enzyme activity in each group was respectively determined to calculate the IC50 (μg/ml) of FTZEC on HMG-CoA reductase activity.

[5] = test system: hypercholesterolemic patients; test: Clinical validation in hyperlipemia patients: blood lipids and efficacy rate; assay type: in vivo, human; settings: patients n = 30, one tablet twice a day, 2 months
Protocol: 60 cases with hyperlipemia treated by FTZEC were analyzed, using the tablets obtained in Experiment 1. The experiment was confirmed according to Principles for Clinical Study of New Chinese Medicines in hyperlipemia, Ministry of Health of the People's Republic of China. 60 cases were in-patients or out-patients with hyperlipidemia diagnosed according to diagnostic criteria (1985), of which 40 cases were outpatients and 20 cases were in-patients; the patients were randomly divided into two groups, the treatment group and the control group. […] All patients accepted hyperlipidemia education, diet control, and regular exercise. […] 5.2 Efficiency standard of blood lipid Clinical control: the experimental examination returned to normal. Marked effective: the blood lipid detection achieved any one of the following indexes: […] Effective: the blood lipid detection achieved any one of the following indexes: […] Note: when determine the efficacy of the complicated hyperlipidemia, if the two indicators were not consistent, the lower efficacy was determined as the final result.

IC50 [4] [µM] | Structure (SMILES) | HDL-C [1] [mmol/L] | LDL-C [1] [mmol/L] | TC [1] [mmol/L] | HDL-C [2] [mmol/L] | TG [2] [mmol/L] | LDL-C [2] [mmol/L] | TC [2] [mmol/L] | Ox-LDL [2] [mmol/L] | LPL activity [3] [g FFA/mL supernatant · h] | TG ([1]; high lipid control 3.28 ± 0.79) [mmol/L] | Effective Cases [5] | Effective Rate % [5] [%] | Invalid Cases [5] | Invalid Rate % [5] [%] | Marked effective Cases [5] | Marked effective Rate % [5] [%] | Total effective rate % [5] [%]
 | CC(C)OC(=O)C(C)(C)Oc1ccc(C(=O)c2ccc(Cl)cc2)cc1 [Fenofibrate] | 1.22 ± 0.43 | 0.89 ± 0.42 | 2.85 ± 0.45 | 1.06 ± 0.26 | 1.88 ± 0.82 | 4.99 ± 2.25 | 19.89 ± 2.62 | 0.99 ± 0.25 | 16.95 ± 3.02 |  |  |  |  |  |  |  | 
 | CC[C@H](C)C(=O)O[C@H]1C[C@@H](C)C=C2C=C[C@H](C)[C@H](CC[C@@H]3C[C@@H](O)CC(=O)O3)[C@H]21 [Lovastatin] | 0.96 ± 0.26 | 0.91 ± 0.25 | 2.29 ± 0.32 |  |  |  |  |  |  | 2.08 ± 0.82 |  |  |  |  |  |  | 
4.36 | CC[C@H](C)C(=O)O[C@H]1C[C@H](O)C=C2C=C[C@H](C)[C@H](CC[C@@H](O)C[C@@H](O)CC(=O)O)[C@H]21 [Pravastatin] |  |  |  | 1.36 ± 0.28 | 2.08 ± 0.82 | 10.29 ± 2.27 | 12.69 ± 3.62 | 1.29 ± 0.27 |  |  | 15 | 50.0 | 4 | 13.3 | 11 | 36.7 | 86.7
